In publication PMC12024814, “Ruthenium(II)–Arene Complexes with a 2,2′-Bipyridine Ligand as Anti-Aβ Agents” (Biomolecules, 2025):

Key:
[1] = Log D7.4 (1-octanol/PBS shake method, absorbance); format: physicochemical; settings: 1-octanol/PBS pH 7.4, 50 μM, 2 h mixing at room temperature
Description: A stock solution was prepared from each Ru complex using dimethyl sulfoxide (DMSO), then diluted to 6 mL and a concentration of 50 μM using phosphate-buffered saline (PBS, pH 7.4), where the final DMSO concentration was less than 5%. The absorbance spectra were measured, then 6 mL of 1-octanol was added, and the resulting biphasic sample was mixed at room temperature for 2 h using an IKA Trayster inversion mixer (60 rpm). Following this, the aqueous layer was extracted, and its absorbance spectra were measured. Log D values were determined using the equation below: LogD7.4=logAbs @ λmax before mixing/Abs @ λmax after mixing−1
The ability of Aβ-targeting therapeutics to cross the blood–brain barrier (BBB) is essential for their success. […] For predicting passage across the BBB, one metric that is used is the n-octanol/water partition coefficient of the molecule (log P). For Ru therapeutics, pH can play an important role in the speciation and stability of the complex; therefore, the determination of log D was performed. For such an analysis, the complexes were initially dissolved in DMSO, then diluted using PBS. After initial absorption measurements, the aqueous samples were mixed with an equal volume of 1-octanol for 2 h. The short mixing time is necessary to minimize any ligand exchange that may occur (vide infra), while still providing an accurate value for the partitioning. […] To the best of our knowledge, the partitioning for these complexes has not been evaluated previously, while the values obtained are similar to previous Ru(II)–arene complexes with bidentate ligands.

[2] = target: T1, human serum albumin (HSA) (Homo sapiens, UniProt P02768); experiment: Protein binding assay, dansyl glycine (DG) displacement, Sudlow site II; settings: for Log K (DG), conditional binding constant to serum albumin: dansyl glycine probe, Sudlow site II, Stern–Volmer slope, HSA and DG 2.5 μM, PBS; for Ranking HSA: scale 1 to 5 (1 = best, 5 = worst), binding to HSA
T1 construct: purchased Sigma Aldrich
Description: (§1) A stock of human serum albumin (HSA, 100 μM) was prepared using PBS, while the probes dansyl glycine (DG) and warfarin (WF) were prepared by initially dissolving them in DMSO and diluting them with PBS until the concentration of DMSO was less than 5%. Solutions of each Ru complex were prepared by initial dissolution in DMSO and subsequent dilution using PBS until the concentration of DMSO was less than 5%. The total volume of each sample was 3.5 mL, where the concentration of HSA and DG/WF was 2.5 μM throughout the experiment. The Ru concentration ranged from 0 μM to 62.5 μM, with an increase of 12.5 μM for each sample. In total, six samples were prepared for each protein binding assay. After preparation, the samples were placed on an IKA Trayster inversion mixer (60 rpm) for 30 s and incubated at approximately 28 °C in a Neslab gp-200 for 15 min, before being placed back on the inversion mixer (60 rpm) for 30 s. All fluorescence measurements for the protein binding assay were made using a PTI QuantiMaster 50, and the samples were measured at room temperature with conditions respective to the probe.
(§2) One important consideration for a potential AD therapeutic is its interaction with serum proteins, specifically albumin (HSA). […] To determine the potential association of the prepared Ru complexes with HSA, a protein binding assay was performed. For these studies, the displacement of two fluorometric probes was used to determine the relative affinity of the Ru complexes for two of the established binding sites on HSA. The first probe, warfarin (WF), an anticoagulant, binds selectively to Sudlow site I on HSA [55], while the second probe used was dansyl glycine (DG), which selectively binds to Sudlow site II on HSA [56]. As these are the two major binding sites on the protein, the probes allow for observations of binding events that occur within these hydrophobic pockets. Individually, the probes were initially mixed with HSA, followed by increasing amounts of the respective Ru complexes, whereby the decrease in fluorescence signals from the respective probes (Figures S22–S30) was used to construct a Stern–Volmer plot, where the slope of the line represents the conditional binding constant (K’) for the respective Ru complexes to each site (Figure 8).

[3] = target: T2, Aβ40 (Homo sapiens, UniProt P05067); experiment: Thioflavin T (ThT) fluorescence assay of Aβ40 aggregation; format: biochemical; settings: for relative aggregation of Aβ40 (ThT fluorescence normalized to Aβ40 alone): equimolar 10 µM complex and Aβ40, 10 µM ThT, final 6 h time point, 37 °C; for Ranking ThT: scale 1 to 5 (1 = best, 5 = worst)
T2 construct: Lyophilized Aβ40 was monomerized following previous procedures; purchased GenScript
Description: All PBS used in the assay was filtered through a 0.20 μm Titan 3 syringe filter prior to use. The Ru stock solutions initially dissolved about 1.5 mg of each Ru complex in 100 µL DMSO and diluted it to 10 mL with PBS. Thioflavin T (ThT) was prepared in the same manner as the Ru complexes but was filtered prior to use in the assay. Lyophilized Aβ40 was monomerized following previous procedures and stored at −20 °C until use. When removed from the freezer, peptide samples were held on ice for 20 min prior to preparation for the assay. The Aβ40 was mixed with a 15 μL aliquot of DMSO and gently flicked to initiate dissolution. Next, 135 μL PBS was added, and the sample was sonicated until the solution was clear. The concentration of the Aβ40 stock solution was determined using an Implen NanoPhotometer N50 at λ = 280 nm with an extinction coefficient of 1490 M^−1 cm^−1 [27]. Samples were prepared in a 96-well plate by the sequential addition of PBS, Ru, ThT, and Aβ, where the final volume was 150 μL, and the analyte concentrations were 10 μM each. Thioflavin T (ThT) fluorescence was measured using the SpectraMax M3 plate reader with λex = 440 nm and λem = 480 nm. Measurements were taken every 30 min for a total of 6 h, with shaking occurring between each reading.
Each of the prepared Ru complexes was mixed with an equimolar amount of Aβ40 (10 µM), along with ThT (10 µM). Each sample was prepared in triplicate, loaded onto a microwell plate, and incubated at 37 °C with constant agitation to promote aggregation, with fluorescence measurements taken every 30 min for up to 6 h. The resultant fluorescence signals were normalized to the last time point for the samples of Aβ40 alone. After 4 h of incubation, a sharp increase in fluorescence for the peptide alone was observed, signifying that aggregation was occurring (Figure 5). […] Remarkably, the activity shown by RuBA is among the greatest we have measured thus far across a variety of Ru complexes. To confirm this activity, the samples from the ThT assay were subjected to additional analysis, as described below.
Figure 5 ThT fluorescence results following the incubation of equimolar solutions (10 μM) of Aβ40 with the Ru complexes for up to 6 h at 37 °C. The signals were normalized to the positive control of the free peptide in solution at the 6 h time point. The error bars represent the standard deviation observed for each data point for the respective samples.

[4] = target: T1, human serum albumin (HSA); experiment: Protein binding assay, warfarin (WF) displacement, Sudlow site I; settings: warfarin probe, Stern–Volmer slope, HSA and WF 2.5 μM, PBS
Description: as §1, §2

T2 sequence (P05067 672-711 limits assumed): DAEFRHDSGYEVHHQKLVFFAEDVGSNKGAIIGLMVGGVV
T1 sequence (P02768 25-609): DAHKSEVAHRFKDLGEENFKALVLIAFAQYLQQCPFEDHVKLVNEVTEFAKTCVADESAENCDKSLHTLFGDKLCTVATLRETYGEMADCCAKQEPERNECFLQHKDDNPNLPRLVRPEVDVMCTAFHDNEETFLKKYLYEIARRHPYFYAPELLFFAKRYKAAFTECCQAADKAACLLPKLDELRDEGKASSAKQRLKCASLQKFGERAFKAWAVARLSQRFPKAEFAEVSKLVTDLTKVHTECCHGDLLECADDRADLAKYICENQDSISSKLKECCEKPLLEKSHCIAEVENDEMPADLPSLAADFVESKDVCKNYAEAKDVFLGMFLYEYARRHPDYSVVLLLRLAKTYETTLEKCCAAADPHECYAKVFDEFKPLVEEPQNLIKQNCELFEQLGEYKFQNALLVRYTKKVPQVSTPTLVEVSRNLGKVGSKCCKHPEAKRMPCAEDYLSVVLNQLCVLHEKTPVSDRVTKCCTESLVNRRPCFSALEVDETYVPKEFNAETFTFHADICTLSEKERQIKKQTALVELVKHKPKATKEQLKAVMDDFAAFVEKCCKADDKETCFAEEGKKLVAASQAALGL

Compound	Log D7.4 [1]	Log K (DG), conditional binding constant to serum albumin [2]	Ranking HSA [2]	relative aggregation of Aβ40 (ThT fluorescence normalized to Aβ40 alone) [3]	Ranking ThT [3]	Log K (WF), conditional binding constant to serum albumin [4]
Cc1ccc(C(C)C)cc1.F[P-](F)(F)(F)(F)F.[Cl-].[Ru+2].c1ccc(-c2ccccn2)nc1 [RuB, [Ru(η^6-p-cymene)(2,2′-bipyridine)Cl]PF6]	−1.90 ± 0.15	3.96	3	9.0% ± 2.3%	2	4.24
Cc1ccc(C(C)C)cc1.Cc1ccnc(-c2cc(C)ccn2)c1.F[P-](F)(F)(F)(F)F.[Cl-].[Ru+2] [RuBMe, [Ru(η^6-p-cymene)(4,4′-dimethyl-2,2′-bipyridine)Cl]PF6]	−0.99 ± 0.13	3.99	4	–	5	4.56
[Ru(η^6-p-cymene)(4,4′-di-tert-butyl-2,2′-bipyridine)Cl]PF6 [RuBtB]	0.84 ± 0.03	3.85	1	14.3% ± 0.6%	3	–
[Ru(η^6-p-cymene)(4,4′-diamino-2,2′-bipyridine)Cl]PF6 [RuBA]	−0.55 ± 0.03	4.07	5	–	1	4.38
[Ru(η^6-p-cymene)(4,4′-dimethoxy-2,2′-bipyridine)Cl]PF6 [RuBMeO]	−0.74 ± 0.08	3.91	2	16.1% ± 6.9%	4	4.00
